Experimental data taken from patent publication US8273562B2, “Method for producing 4-hydroxy-L-isoleucine” (Ajinomoto Co., Inc., priority 2006, dated 2012).

B1: L-Ile hydroxylase: L-isoleucine dioxygenase purified from Bacillus thuringiensis strain 2-e-2, SEQ ID NO: 2 (protein, listed as Bacillus thuringiensis)
chain: KMSGFSIEEKVHEFESKGFLEISNEIFLQEEENHSLLTQAQLDYYNLEDDAYGECRARSYSRYIKYVDSPDYILDNSNDYFQSKEYNYDDGGKVRQFNSINDSFLCNPLIQNIVRFDTEFAFKTNIIDKSKDLIIGLHQVRYKATKERPSFSSPIWLHKDDEPVVFLHLMNLSNTAIGGDNLIANSPREINQFISLKEPLETLVFGQKVFHAVTPLGTECSTEAFRDILLVTFSYKETK

Experiments:
[1] = test system: isolated perfused rat pancreas; settings: stimulating effect dependent on plasma glucose concentrations; cited from earlier work
[2] = test system: human pancreatic islets; settings: stimulating effect dependent on plasma glucose concentrations; cited from earlier work
[3] = Optimum pH, optimum temperature and temperature stability of purified L-Ile hydroxylase; assay type: biochemical, Bacillus thuringiensis; settings: enzyme solution pH 7.0 incubated 1 hour at 0 to 70° C.
Protocol: By using L-Ile hydroxylase prepared as described in Example 2, pH dependency on the producing of the 4-hydroxyisoleucine was evaluated. The enzymatic reaction solution contained 5 mM L-Ile, 5 mM Fe^2+, 5 mM 2-oxoglutaric acid, 5 mM ascorbic acid and 200 mM GTA (pH 3 to 12). The reaction temperature was 30° C. […] Production of a large amount was confirmed at pH 4 to 8, and production of the most 4-hydroxyisoleucine was confirmed at pH 5 to 8.
By using L-Ile hydroxylase prepared as described in Example 2, the optimum temperature of the 4-hydroxyisoleucine production activity was evaluated. The enzymatic reaction solution contained 5 mM Ile, 5 mM Fe^2+, 5 mM 2-oxoglutaric acid, 5 mM ascorbic acid, and 100 mM HEPES (pH 6). […] High production was confirmed for the temperature range of 0 to 40° C.
By using L-Ile hydroxylase prepared as described in Example 2, the temperature stability during production of 4-hydroxyisoleucine was evaluated. The enzyme solution at pH 7.0 was incubated at 0 to 70° C. for 1 hour, and then the Ile hydroxylation activity was measured. The enzymatic reaction solution contained 5 mM Ile, 5 mM Fe^2+, 5 mM 2-oxoglutaric acid, 5 mM ascorbic acid, and 100 mM HEPES (pH 6), and the reaction temperature was 30° C. These values are relative to the storage temperature which produced the maximum amount of hydroxyisoleucine, which was set as 100%. […]

[4] = IDO activity assay in crude cell lysate of recombinant E. coli strains; assay type: biochemical, Escherichia coli
Protocol: 2.4. The IDO activity assay in crude cell lysate of TG1[pMW119-IDO(Lys, 23) and TG1[pMW119-IDO(Lys, 32): To investigate the IDO activity in crude cell lysates of recombinant E. coli strains, the following procedures were carried out. Cells from 5 ml of culture were harvested by centrifugation at 4° C., re-suspended in 0.5 ml of buffer A*(50 mM TRIZMA, 5% glycerol, 1 mM EDTA, 1 mM DTT, pH 7 adjusted by HCl) and disrupted by sonication at 4° C. The reaction mixture (50 μl) contained 50 mM HEPES pH 7.0, 5 mM Ile, 0.5 mM α-ketoglutarate, 5 mM ascorbate, 5 mM FeSO4, and an aliquot of the protein preparation. The reaction was incubated at 34° C. for 1 hour with shaking. The synthesized 4HIL was detected using TLC or HPLC analysis as described in Example 4.

Molecule | insulinotropic activity [1] | insulinotropic activity [2] | temperature at which enzyme was inactivated [3] | IDO activity in comparison with IDO(Lys,32) [4]
C[C@@H]([C@H](C)O)[C@H](N)C(=O)O [4-Hydroxy-L-isoleucine, (2S,3R,4S)-4-hydroxy-L-isoleucine] | insulinotropic activity | insulinotropic activity | – | –
B1 | – | – | ≥ 60 °C | 5 times
